Assay results taken from patent publication US20050245399A1, “Pyrazole derivatives as herbicidal compositions containing them” (ISHIHARA SANGYO KAISHA, LTD., priority 2004, published 2005).

Columns and labels:
Format in all cases: in vivo
[1] = system: barnyardgrass (Echinochloa crus-galli L.): ECHCG; experiment: Test Example 1 pre-emergence herbicidal activity, ECHCG; details: Rate 63 g a.i./ha, visually observed 20th to 23rd day after application
Method in brief: (§1)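 Read-out: visual growth control (%, 0–100, 100 = complete kill) assessed 20 to 23 days post-treatment. Compound was applied pre-emergence by small sprayer, one day after sowing into upland soil pots, in 500 L/ha water.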

[2] = system: crabgrass (Digitaria sanguinalis L.): DIGSA; experiment: Test Example 1 pre-emergence herbicidal activity, DIGSA; details: Rate 63 g a.i./ha, visually observed 20th to 23rd day after application
Method in brief: as §1

[3] = system: green foxtail (Setaria viridis L.): SETVI; experiment: Test Example 1 pre-emergence herbicidal activity, SETVI; details: Rate 63 g a.i./ha, visually observed 20th to 23rd day after application
Method in brief: as §1

[4] = system: redroot pigweed (Amaranthus retroflexus L.): AMARE; experiment: Test Example 1 pre-emergence herbicidal activity, AMARE; details: Rate 63 g a.i./ha, visually observed 20th to 23rd day after application
Method in brief: as §1

[5] = system: prickly sida (Sida spinosa L.): SEDSP; experiment: Test Example 1 pre-emergence herbicidal activity, SIDSP; details: Rate 63 g a.i./ha, visually observed 20th to 23rd day after application
Method in brief: as §1

[6] = system: velvetleaf (Abutilon theophrasti): ABUTH; experiment: Test Example 1 pre-emergence herbicidal activity, ABUTH; details: Rate 63 g a.i./ha, visually observed 20th to 23rd day after application
Method in brief: as §1

[7] = system: rice (Oryza sativa L.): ORYSA; experiment: Test Example 1 pre-emergence herbicidal activity, ORYSA; details: Rate 63 g a.i./ha, visually observed 20th to 23rd day after application
Method in brief: as §1

[8] = system: wheat (Triticum aestivum L.): TRZAX; experiment: Test Example 1 pre-emergence herbicidal activity, TRZAX; details: Rate 63 g a.i./ha, visually observed 20th to 23rd day after application
Method in brief: as §1

[9] = system: corn (Zea mays L.): ZEAMX; experiment: Test Example 1 pre-emergence herbicidal activity, ZEAMX; details: Rate 63 g a.i./ha, visually observed 20th to 23rd day after application
Method in brief: as §1

[10] = system: soybean (Glycine max Merr.): GLXMA; experiment: Test Example 1 pre-emergence herbicidal activity, GLXMA; details: Rate 63 g a.i./ha, visually observed 20th to 23rd day after application
Method in brief: as §1

[11] = system: barnyardgrass (Echinochloa crus-galli L.), ECHCG; experiment: Test Example 2 post-emergence (foliage treatment) herbicidal activity, ECHCG; details: 63 g a.i./ha
Method in brief: (§2)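 Post-emergence, upland soil pots; leaf stage at spray: ECHCG 1.1-2.1 / DIGSA 1.0-2.0 / AMARE 0.1-1.5 / ORYSA 1.0-2. WP or EC formulation, set active ingredient rate, 500 L/ha water + 0.1% v/v spreader. Visual rating at d20-23, % control 0-100.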

[12] = system: crabgrass (Digitaria sanguinalis L.), DIGSA; experiment: Test Example 2 post-emergence (foliage treatment) herbicidal activity, DIGSA; details: 63 g a.i./ha
Method in brief: as §2

[13] = system: green foxtail (Setaria viridis L.), SETVI; experiment: Test Example 2 post-emergence (foliage treatment) herbicidal activity, SETVI; details: 63 g a.i./ha
Method in brief: (§3)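 Each species was evaluated for growth suppression by eye, 0% matching untreated and 100% meaning death, some 20 to 23 days after a single post-emergence foliar treatment applied in 500 L/ha of water carrying 0.1% (v/v) agricultural spreader.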

[14] = system: redroot pigweed (Amaranthus retroflexus L.), AMARE; experiment: Test Example 2 post-emergence (foliage treatment) herbicidal activity, AMARE; details: 63 g a.i./ha
Method in brief: as §2

[15] = system: prickly sida (Sida spinosa L.), SIDSP; experiment: Test Example 2 post-emergence (foliage treatment) herbicidal activity, SIDSP; details: 63 g a.i./ha
Method in brief: as §3

[16] = system: velvetleaf (Abutilon theophrasti), ABUTH; experiment: Test Example 2 post-emergence (foliage treatment) herbicidal activity, ABUTH; details: 63 g a.i./ha
Method in brief: as §3

[17] = system: rice (Oryza sativa L.), ORYSA; experiment: Test Example 2 post-emergence (foliage treatment) herbicidal activity, ORYSA; details: 63 g a.i./ha
Method in brief: as §2

[18] = system: wheat (Triticum aestivum L.), TRZAX; experiment: Test Example 2 post-emergence (foliage treatment) herbicidal activity, TRZAX; details: 63 g a.i./ha
Method in brief: as §3

[19] = system: corn (Zea mays L.), ZEAMX; experiment: Test Example 2 post-emergence (foliage treatment) herbicidal activity, ZEAMX; details: 63 g a.i./ha
Method in brief: as §3

[20] = system: soybean (Glycine max Merr.), GLXMA; experiment: Test Example 2 post-emergence (foliage treatment) herbicidal activity, GLXMA; details: 63 g a.i./ha
Method in brief: as §3

[21] = system: barnyardgrass (Echinochiloa oryzicola: ECHOR); experiment: Test Example 3 water application herbicidal activity (paddy), ECHOR; details: 63 g a.i./ha, water application under submerged condition at 0.5 leaf stage, visually observed 14th day after application; 0 = untreated control, 100 = complete kill
Method in brief: (§4)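 Compound, as diluted wettable powder or emulsifiable concentrate, was pipetted into flood water at a set active-ingredient dose. Weeds were treated at 0.5-leaf stage after sowing or tuber planting; 2-leaf rice 4 days post-transplant. Control scored visually, 0 untreated to 100 complete kill, weeds day 14, rice day 21.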

[22] = system: japanese bulrush (Scirpus juncoides: SCPJO); experiment: Test Example 3 water application herbicidal activity (paddy), SCPJO; details: 63 g a.i./ha, water application under submerged condition at 0.5 leaf stage, visually observed 14th day after application; 0 = untreated control, 100 = complete kill
Method in brief: as §4

[23] = system: japanese ribbon wapato (Sagittaria pygmaea: SA GPY); experiment: Test Example 3 water application herbicidal activity (paddy), SAGPY; details: 63 g a.i./ha, water application under submerged condition, tubers planted, visually observed 14th day after application; 0 = untreated control, 100 = complete kill
Method in brief: as §4

[24] = system: rice (Oryza sativa L.: ORYSA); experiment: Test Example 3 water application herbicidal activity (paddy), transplanted rice ORYSA; details: 63 g a.i./ha, water application 4th day after transplantation of 2 leaf stage rice, visually observed 21st day after application; 0 = untreated control, 100 = complete kill
Method in brief: as §4

Row | SMILES | Pre-emergence Herbicidal Activity ECHCG (growth controlling degree) [1] | Pre-emergence Herbicidal Activity DIGSP (growth controlling degree) [2] | Pre-emergence Herbicidal Activity SETVI (growth controlling degree) [3] | Pre-emergence Herbicidal Activity AMARE (growth controlling degree) [4] | Pre-emergence Herbicidal Activity SIDSP (growth controlling degree) [5] | Pre-emergence Herbicidal Activity ABUTH (growth controlling degree) [6] | Pre-emergence Herbicidal Activity ORYSA (growth controlling degree) [7] | Pre-emergence Herbicidal Activity TRZAX (growth controlling degree) [8] | Pre-emergence Herbicidal Activity ZEAMX (growth controlling degree) [9] | Pre-emergence Herbicidal Activity GLXMA (growth controlling degree) [10] | growth controlling degree, ECHCO [11] | growth controlling degree, DIGSP [12] | growth controlling degree, SETVI [13] | growth controlling degree, AMARE [14] | growth controlling degree, SIDSP [15] | growth controlling degree, ABUTH [16] | growth controlling degree, ORYSA [17] | growth controlling degree, TRZAX [18] | growth controlling degree, ZEAMX [19] | growth controlling degree, GLXMA [20] | also measured
1 | COCCOC(=O)Nc1c(OC)c(Cl)cc(F)c1-c1nn(C)c(OC(F)F)c1Cl [Compound 1-61] | 100% | 100% | 100% | 100% | 100% | 100% | 70% | 50% | 30% | 10% | 100% | 100% | 100% | 100% | 100% | 100% | 80% | 60% | 80% | 80% | growth controlling degrees (%) ECHOR [21]: 100%; growth controlling degrees (%) SCPJO [22]: 90%; growth controlling degrees (%) SAGPY [23]: 100%; growth controlling degrees (%) ORYSA [24]: 95%
2 | COc1c(Cl)cc(F)c(-c2nn(C)c(OC(F)F)c2Cl)c1NC(=O)C(C)Oc1ccccc1 (stereo not drawn) [Compound 1-33] | 30% | 40% | 50% | 95% | 50% | 40% | 10% | 10% | 0% | 0% | 80% | 70% | 98% | 100% | 100% | 100% | 50% | 30% | 60% | 60% | growth controlling degrees (%) ECHOR [21]: 100%; growth controlling degrees (%) SCPJO [22]: 40%; growth controlling degrees (%) SAGPY [23]: 98%; growth controlling degrees (%) ORYSA [24]: 35%
3 | COc1c(Cl)cc(F)c(-c2nn(C)c(OC(F)F)c2Cl)c1NC(=O)C(C)C [Compound 1-3] | 100% | 100% | 100% | 100% | 100% | 100% | 80% | 40% | 50% | 20% | 70% | 95% | 100% | 100% | 100% | 100% | 80% | 40% | 70% | 80% | growth controlling degrees (%) ECHOR [21]: 100%; growth controlling degrees (%) SCPJO [22]: 98%; growth controlling degrees (%) SAGPY [23]: 100%; growth controlling degrees (%) ORYSA [24]: 80%
4 | COc1c(Cl)cc(F)c(-c2nn(C)c(OC(F)F)c2Cl)c1NC(=O)c1ccc(F)cc1F [Compound 1-30] | 60% | 100% | 100% | 100% | 100% | 100% | 10% | 0% | 10% | 10% | 100% | 100% | 100% | 100% | 100% | 100% | 90% | 50% | 60% | 95% | growth controlling degrees (%) ECHOR [21]: 100%; growth controlling degrees (%) SCPJO [22]: 98%; growth controlling degrees (%) SAGPY [23]: 100%; growth controlling degrees (%) ORYSA [24]: 60%
5 | COc1c(Cl)cc(F)c(-c2nn(C)c(OC(F)F)c2Cl)c1NC(=O)c1cccc(Cl)c1 [Compound 1-26] | 70% | 98% | 100% | 100% | 70% | 100% | 30% | 10% | 10% | 10% | 95% | 60% | 100% | 100% | 100% | 100% | 80% | 30% | 40% | 70% | growth controlling degrees (%) ECHOR [21]: 100%; growth controlling degrees (%) SCPJO [22]: 70%; growth controlling degrees (%) SAGPY [23]: 100%; growth controlling degrees (%) ORYSA [24]: 60%
